“And” between values parts separate entries of the source, which are not always exact repeats. Identical values can stand only once.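 Dose response: 5 concentrations. Exposure: 48 h. Format: 96-well plates. Endpoint: linear interpolation; highest concentration if not reached. The concentration for 50% growth inhibition is given as GI50. TGI denotes the concentration required for complete inhibition of growth.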 *1 amine or outer side, *2 acyl side, *3 side chain or, on linkers, in order; H or OH if unused. Where a SMILES comes first, the peptide text is derived from it. Bridges are numbered along the chain shown (N, C = ends). Roman numbers before positions name the chains, in order. [ ]: non-standard residue; d: D form. Actinocin(9to1) = Cc1c2oc3c(C)ccc(C(=O)[*:1])c3nc-2c(C(=O)[*:2])c(N)c1=O; NMeT = CN[CH](C(=O)O)[CH](C)O; Sar = CNCC(=O)O
Experiments:
Assay in all cases: NCI-60 cell line screen, 48 h
[1] = test system: SF-295 CNS
[2] = test system: NCI-H460 lung
[3] = test system: A549 NSCLC
[4] = test system: MALME-3M melanoma
[5] = test system: A498 renal
[6] = test system: PC-3 prostate
[7] = test system: NCI/ADR-RES ovarian
[8] = test system: RXF 393 renal
[9] = test system: 786-0 renal
[10] = test system: TK-10 renal

Compound | TGI [1] [µM] | TGI [2] | TGI [3] [µM] | TGI [4] | TGI [5] | TGI [6] [µM] | TGI [7] [µM] | TGI [8] | TGI [9] [µM] | GI50 [1] [nM] | GI50 [2] [nM] | GI50 [3] | GI50 [4] | GI50 [5] | GI50 [6] | GI50 [7] | GI50 [10] | TGI [10] [µM] | GI50 [8] [nM] | GI50 [9]
Cc1cc(=O)oc2c(C)c(O)ccc12 | > 100 | > 100 µM | > 100 | > 100 µM | > 100 µM | > 100 | > 100 | > 100000 nM | > 100 |  |  |  |  |  |  |  |  |  |  | 
COc1ccc(NC([Se])=NC23CC4CC(CC(C4)C2)C3)cc1 | 4.15 | 10.7 µM | 7.78 | 3.74 µM | 4.75 µM | 32.2 | 8.88 | 4720 nM | 4.22 | 1520 | 1980 | 2380 nM | 653 nM | 1320 nM | 696 nM | 711 nM | 2100 nM | 5.52 | 1800 | 1780 nM
COc1cc2c(cc1OC)-c1ccc3cc4c(cc3c1N(CCCn1ccnc1)C2)OCO4 | 75.6 | 11.3 µM | 32.1 | 10.7 µM | 27.1 µM | 36.7 | > 100 | 16300 nM | 32.8 | 2800 | 527 | 8390 nM | 2680 nM | 7660 nM | 4180 nM | > 100000 nM | 25200 nM | 60.5 | 3430 | 6040 nM
O=C(O)CCCSc1ccccc1 | > 100 | > 100 µM | > 100 | > 100 µM | > 100 µM | > 100 | > 100 | > 100000 nM | > 100 |  |  |  |  |  |  |  |  | > 100 |  | 
Cc1c2oc3c(C)ccc(C(=O)NC4C(=O)NC(C(C)C)C(=O)N5CCCC5C(=O)N(C)CC(=O)N(C)C(C(C)O)C(=O)OC4C)c3nc-2c(C(=O)NC2C(=O)NC(C(C)C)C(=O)N3CCCC3C(=O)N(C)CC(=O)N(C)C(C(C)O)C(=O)OC2C)c(N)c1=O (stereo not given) (I: TVP[Sar][NMeT] / II: TVP[Sar][NMeT]; ester I:1-I:C, II:1-II:C; linker I:N-II:N via Actinocin(9to1); configuration not given here) | > 100 | 4.95 µM and > 1 µM | > 100 | 6.05 µM and > 1 µM | 2.33 µM and > 1 µM | > 100 | > 100 | 2950 nM and > 1000 nM | > 100 |  |  | 2860 nM and > 1000 nM | 94.9 nM and 729 nM | 327 nM and > 1000 nM | 2990 nM and > 1000 nM | 25900 nM and > 1000 nM | 4200 nM and > 1000 nM | > 28.8 |  | 1250 nM and 610 nM
COc1ccc(-c2oc(=O)ccc2-c2cc(OC)c(OC)c(OC)c2)cc1O | > 100 | > 100 µM | > 100 | > 100 µM | 28.1 µM | > 100 | > 100 | 3760 nM | > 75.7 | 1260 | 604 | 3410 nM |  | 2570 nM | 963 nM | 1480 nM | 14100 nM | > 84.1 | 795 | 2620 nM
CC(=C/C=C/C=C(C)\C=C\C=C(\C)C(=O)O)/C=C/C=C(/C)C(=O)O | > 100 | > 100 µM | > 100 | > 100 µM | > 100 µM | > 100 | > 100 | > 100000 nM | > 100 |  |  |  |  |  |  |  |  | > 100 |  | 
CS(=O)(=O)CCNCc1ccc(-c2ccc3ncnc(Nc4ccc(OCc5ccccc5)c(Br)c4)c3c2)o1 | 12.8 | > 25 µM | > 25 | 10.4 µM | 16.3 µM | > 25 | > 25 | 8190 nM | 10.2 | 5260 | 7870 | 8810 nM | 5370 nM | 4350 nM | 9280 nM | 6870 nM | 2020 nM | > 22 | 3710 | 4690 nM
COc1ccc(-c2cc(-c3ccc(Cl)cc3)nc(SCCCC(=O)NO)n2)cc1 | 2.23 | 3.9 µM | 7.95 | 7.01 µM | 3.28 µM | 3.61 | 1.28 | 1520 nM | 4.52 | 537 | 495 | 1570 nM | 1860 nM | 1380 nM | 874 nM | 314 nM | 499 nM | 5.78 | 359 | 594 nM
CC(=O)N1C/C(=C/c2ccc(Cl)cc2)C(=O)/C(=C/c2ccc(Cl)cc2)C1 | 3.02 | 4.22 µM | 4.5 | 4.14 µM | 2.89 µM | 2.28 | 12.6 | 1610 nM | 1.87 | 1080 | 1320 | 633 nM | 1940 nM | 1410 nM | 470 nM | 2560 nM | 1940 nM | 4.1 | 546 | 575 nM
Nc1c2c(c(O)c3c1=C(CO)C=N3)=NCCS2 | 0.33 | 0.154 µM | 0.219 | 0.108 µM | 0.285 µM | 1.05 | 0.824 | 1240 nM | 1.23 | 177 | 38.9 | 56.1 nM | 34.7 nM | 148 nM | 287 nM | 256 nM | 420 nM | 1.46 | 289 | 317 nM
C=C1C(=O)O[C@H]2[C@H]1CC/C(COC(=O)C(=O)c1cn(C)c3ccc(Cl)cc13)=C\CC[C@@]1(C)O[C@@H]21 | 10.3 | 6.75 µM | 4.82 | 4.28 µM | 3.86 µM | 3.32 | 4.7 | 2330 nM | 2.53 | 2880 | 2280 | 2200 nM | 1740 nM | 2170 nM | 1410 nM | 1450 nM | 1420 nM | 2.98 | 1060 | 1200 nM
Cc1ccc(Cc2cnc(NC(=O)/C=C/c3cccc(C)c3)s2)cc1 | 0.558 | 11.8 µM | > 67.7 | 51.9 µM | 3.14 µM | > 100 | 2.06 | 671 nM | 4.04 | 78.6 | 64 | 290 nM | 190 nM | 277 nM | 154 nM | 135 nM | 919 nM | 6.81 | 106 | 389 nM

— PubChem BioAssay (NCI)
